Laboratory results as given in patent publication US12398141B2 (SHANGHAI SYNERGY PHARMACEUTICAL SCIENCES CO., LTD, priority 2019, dated 2025).

What was measured:
TF-1 cell = TF-1 cell proliferation test; assay type: cell-based; conditions: Homo sapiens, 72 h
male ICR mice = assay: Carrageenan-induced paw swelling in mice; assay type: in vivo; conditions: 10 mg/kg intragastric; for Paw swelling_0.5 h (%): 0.5 h; for Paw swelling rate_1 h (%): 1 h; for Paw swelling rate_2 h (%): 2 h
Outline: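 Compounds in 4% Tween 80/0.5% HPMC given intragastrically at 10 mg/kg (10 ml/kg); 0.5 h later 20 μL 1% carrageenan injected into the plantar. Paw volume measured before and at 0.5, 1 and 2 h; swelling rate expressed relative to baseline paw volume.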

Sprague-Dawley (SD) mice = assay: Concanavalin-induced paw swelling in mice; assay type: in vivo; conditions: 10 mg/kg intragastric; for Paw swelling rate_1 h (%): 1 h; for Paw swelling rate_2 h (%): 2 h; for Paw swelling rate_4 h (%): 4 h; for Paw swelling rate_6 h (%): 6 h
Outline: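 SD […], 6-7 weeks, 160-180 g, dosed intragastrically with compound in 4% Tween 80/0.5% HPMC. 0.5 h later, 0.1 ml 0.03% concanavalin injected subcutaneously into the plantar. Paw volume measured before modeling and at 1, 2, 4 and 6 h; swelling rate expressed as percent change from pre-dose volume.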

Blast T cell = assay: Cell proliferation test of IL-2 stimulated Blast T cell; assay type: cell-based; conditions: Homo sapiens; IL-2 stimulated Blast T cell proliferation, 72 hours

SMILES	IC50 (TF-1 cell)	Paw swelling_0.5 h (%) (male ICR mice)	Paw swelling rate_1 h (%) (male ICR mice)	Paw swelling rate_2 h (%) (male ICR mice)	Paw swelling rate_1 h (%) (Sprague-Dawley (SD) mice)	Paw swelling rate_2 h (%) (Sprague-Dawley (SD) mice)	Paw swelling rate_4 h (%) (Sprague-Dawley (SD) mice)	Paw swelling rate_6 h (%) (Sprague-Dawley (SD) mice)	IC50 (Blast T cell)
COc1nsc(NC(=O)N[C@H]2C[C@@H](N(C)c3c(C#N)cnc4[nH]ccc34)C2)n1 [Compound H29, (cis)-1-(3-((5-cyano-1H-pyrrolo[2,3-b]pyridin-4-yl)(methyl)amino)cyclobutyl)-3-(3-methoxy-1,2,4-thiadiazole-5-yl)urea]	0.87 µM	33.03 ± 4.23%	41.65 ± 2.21%	40.10 ± 4.32%	23.70 ± 1.60%	23.20 ± 2.60%	32.20 ± 3.50%	29.20 ± 3.50%	0.016 µM
CC(C)c1nsc(NC(=O)N2C[C@H]3C[C@H](N(C)c4c(C#N)cnc5[nH]ccc45)C[C@H]3C2)n1 [Compound H30, (3aR,5s,6aS)-4-({2-[(3-isopropyl-1,2,4-thiadiazole-5-yl)carbamoyl]-hexahydrocyclopenta[c]pyrrole-5-yl}-methyl-amino)-1H-pyrrolo[2,3-b]pyridin-5-carbonitrile]	1.23 µM	33.12 ± 1.38%	43.43 ± 2.12%	44.52 ± 4.37%	24.40 ± 2.40%	25.20 ± 3.40%	26.00 ± 2.30%	24.50 ± 2.30%	0.018 µM
